Data published in ChEMBL document CHEMBL1154198, “Chemical genetics of Plasmodium falciparum” (Nature, 2010).

Columns and labels:
[1] = system: Plasmodium falciparum; test: ST_JUDE: Plasmodium falciparum K1 EC50 (uM) as measured by SYBR green dye; type: functional, organism-based
[2] = system: Plasmodium falciparum; test: ST_JUDE: Plasmodium falciparum 3D7 EC50 (uM) as measured by SYBR green dye; type: functional, organism-based

| SMILES | EC50 [1] [µM] | EC50 [2] [µM] |
| --- | --- | --- |
| CCN1CCN(Cc2c(O)ccc3c(=O)c(Oc4cc(C)cc(C)c4)c(C(F)(F)F)oc23)CC1 | 0.204 | 0.514 |
| CN(C)CCn1c(=N)n(CC(O)c2ccc(Cl)c(Cl)c2)c2ccccc21 (configuration not stated) | 3.01 | 0.638 |
| Cc1ccnc(NC(c2cccc(OCc3ccccc3)c2)c2ccc3cccnc3c2O)c1 (configuration not stated) | 2.93 | 1.81 |
| CCN1/C(=C/c2cccc[n+]2C)Sc2ccc(C)cc21 | 0.436 | 0.738 |
| O=C1CC(c2ccc(O)cc2)C2=C(CC(c3ccccc3Cl)CC2=O)N1 (configuration not stated) | 1.41 | 2.43 |
| COc1ccccc1C1CC(c2ccccc2)=NN1C(=O)c1ccco1 (configuration not stated) | 4.33 | 0.594 |
| CN(C(=O)c1cc2c(s1)-c1ccccc1S(=O)(=O)C2)c1cccc(Cl)c1 | 1.05 | 0.711 |
| COc1cccc(C2=C(C(C)=O)Sc3nncn3N2C(C)=O)c1 | 3.43 | 3.01 |
| O=C(CSc1nccn1-c1ccc(F)cc1)Nc1cc(C(F)(F)F)ccc1Cl | 4.11 | 2.96 |
| CCc1nnc2n1NC(c1ccccc1)C(C(=O)Nc1ccccc1Cl)S2 (configuration not stated) | > 15 | > 15 |
| OC(CN1CCN(Cc2ccccc2)CC1)Cn1c2ccccc2c2ccccc21 (configuration not stated) | 1.15 | 2.64 |
| CCN1CCN(CCCNC(=O)c2ccc3c(c2)sc2nc(-c4ccc(OC)cc4)cn23)CC1 | 1.56 | 0.577 |
| CCCC(=O)N1CCN(c2ccc(NC(=O)c3cccc([N+](=O)[O-])c3)cc2Cl)CC1 | > 15 | > 15 |
| CC[n+]1c(C=C2C=CN(C)C=C2)ccc2cc(OC)ccc21 | 2.05 | > 15 |
| C=CCn1c(C)c(C=C2C(=O)NC(=S)NC2=O)c2ccccc21 | 1.4 | 1.69 |
| COc1cccc(C(=O)NC(NC(=S)Nc2ccccc2Cl)C(Cl)(Cl)Cl)c1 (configuration not stated) | 5.39 | 2.67 |
| CCCOc1cc(S(=O)(=O)n2ccnc2)ccc1Cl | > 15 | > 15 |
| Cc1cc(Br)ccc1OCCCCn1ccnc1 | > 15 | > 15 |
| COc1ccccc1CCN1C(=O)CCC1CCNCCOc1ccccc1 (configuration not stated) | > 15 | > 15 |
| CCN(CC)c1ccc(C(NC(=O)C(C)C)c2ccc3cccnc3c2O)cc1 (configuration not stated) | 5.82 | 4.85 |
| COc1cccc(C(=O)Nc2ccc(-c3nnc(-c4ccco4)o3)cc2)c1 | > 15 | > 15 |
| Nc1nc(Nc2ccc(Cl)c(Cl)c2)nc2ccccc12 | > 15 | 2.22 |
| O=C(N/N=C/c1cc(Br)cc([N+](=O)[O-])c1O)NC12CC3CC(CC(C3)C1)C2 | 0.959 | > 15 |
| Cc1c(C(=O)Nc2ccc(Cl)cc2Cl)cccc1[N+](=O)[O-] | > 15 | > 15 |

| SMILES | EC50 [1] [µM] | EC50 [2] [µM] |
| --- | --- | --- |
| Oc1c(CN2CCCCC2)cc(Br)c2cccnc12 | 2.32 | 3.42 |
| COC(=O)c1c(S(=O)(=O)NCc2ccccc2)sc2c1CCN(Cc1ccc(OC)cc1)C2 | > 15 | > 15 |
| Cc1c(Cl)cccc1NC(=O)Nc1ccc(Cl)c(Cl)c1 | > 15 | 4.13 |
| Cc1ccc2nc3c(cc(C(=O)NC(C)c4ccccc4)c(=N)n3CC3CCCO3)c(=O)n2c1 (configuration not stated) | > 15 | > 15 |
| CCCN(CCC)CCCNC(=O)c1cc2c(-c3cccc(OC)c3)nn(C)c2s1 | 7.45 | 2.15 |
| CCCC1=Nc2cc(C(=O)N3CCN(C(=O)OCC)CC3)ccc2Sc2ccc(C)cc21 | > 15 | > 15 |
| CC(=O)Nc1ccc(NC(=O)CSc2nn3c(=O)c(C)nnc3s2)cc1 | 4.96 | > 15 |
| Cc1ccc2nc(NNC(=O)c3ccc(S(=O)(=O)N(C)C)cc3)sc2c1 | 5.39 | 5.03 |
| COc1ccc(-c2cc(=O)oc3c4c(ccc23)OCN(Cc2ccc(F)cc2)C4)cc1 | 1.06 | 5.21 |
| COc1ccc(CN2CCCN(C)CC2)cc1OCCC1CCCCN1C(=O)/C=C/c1cccs1 (configuration not stated) | 1.48 | 3.98 |
| CCOC(=O)c1ccc2nc(C)c(CN3CCN(C(c4ccccc4)c4ccccc4)CC3)c(O)c2c1 | > 15 | > 15 |
| O=C(NCCc1cccc(C(F)(F)F)c1)Nc1cc(C(F)(F)F)ccc1Cl | 2.37 | 3.09 |
| CCN1CCN(CCCNC(=O)c2ccc3c(c2)sc2nc(-c4ccc(C)cc4)cn23)CC1 | 1.89 | 1.14 |
| CCOc1ccc(Nc2nc(NCc3ccco3)c3ccccc3n2)cc1 | 2.64 | 1.19 |
| COc1ccccc1OCCCCN1CCCC1 | > 15 | > 15 |
| CCOc1ccc(NC2=C(NCCO)C(=O)c3ccccc3C2=O)cc1 | 4.88 | 3.54 |
| Oc1ccc(Cl)cc1CN1CCN(Cc2ccccc2)CC1 | 0.486 | 1.02 |
| Cc1ccc(NC(=O)c2ccc(Br)o2)c(Br)c1 | > 15 | > 15 |
| Cc1ccc(-c2cc(-c3cc(Cl)ccc3O)[nH]n2)cc1 | 2.92 | 5.01 |
| CCOc1ccccc1CNC(=O)C1c2ccccc2C(=O)N(CC(C)C)C1c1cccs1 (configuration not stated) | 1.49 | 1.43 |
| CC(C)C(=O)N1CCN(c2ccc([N+](=O)[O-])c(NC3CC3)c2)CC1 | 6.77 | 4.46 |
| COc1ccc(NC(=O)COc2c(C)cc(Br)cc2C)c(OC)c1 | 5.44 | > 15 |
| O=C(Nc1cccc(Br)c1)c1cc2ccccc2cc1O | 0.57 | > 15 |
| Oc1c(CN2CCN(c3cccc(Cl)c3)CC2)cc(Br)c2cccnc12 | > 15 | 0.88 |

| SMILES | EC50 [1] [µM] | EC50 [2] [µM] |
| --- | --- | --- |
| CCCN1C(=O)c2[nH]nc(-c3c(C)cc(C)cc3O)c2C1c1ccc(OC)c(OC)c1 (configuration not stated) | > 15 | > 15 |
| Oc1ccc(Nc2nc(NCc3ccccc3)c3ccccc3n2)cc1 | > 15 | 0.203 |
| COc1ccc(CCNC(=S)Nc2ccccc2C)cc1OC | 3.96 | 3.75 |
| O=C1c2ccccc2/C(=N/Nc2ccc([N+](=O)[O-])cc2)C1c1cc(Br)ccc1[N+](=O)[O-] (configuration not stated) | 3.57 | 6.75 |
| CCc1cc(-c2[nH]nc(C)c2Oc2ccc(Cl)cc2)c(O)cc1OC | 3.2 | 4.85 |
| CCOC(=O)C1CCN(C(=O)CN(Cc2ccc(Cl)cc2)S(=O)(=O)c2ccc(C)cc2)CC1 | 2.18 | > 15 |
| CCOC(=O)C1=C(C)N=c2s/c(=C\c3ccc(O)cc3)c(=O)n2C1c1ccc(OC)c(OC)c1 (configuration not stated) | 1.4 | > 15 |
| C#CC[n+]1ccn2c(C)ccc2c1C | 1.69 | 5.58 |
| COc1ccc(C)c2sc(N(Cc3cccnc3)C(=O)c3ccc(C#N)cc3)nc12 | > 15 | > 15 |
| Cc1cc(N2CCN(C)CC2)nc(N2CCN(C(=O)c3ccc(C(C)(C)C)cc3)CC2)n1 | > 15 | > 15 |
| Cc1nc2sc(C(c3ccc(Cl)c(Cl)c3)N3CCN(C)CC3)c(O)n2n1 (configuration not stated) | > 15 | > 15 |
| CN(C)c1ccc(Nc2nc(-c3cccnc3)nc3ccccc23)cc1 | 5.08 | > 15 |
| CCC(=O)NC(c1ccccc1OC)c1ccc2cccnc2c1O (configuration not stated) | 4.28 | 2.27 |
| COc1ccc2ncc(C(=O)c3ccccc3)c(N3CCN(C)CC3)c2c1 | > 15 | > 15 |
| CCCc1cc(O)nc(-n2nc(C)cc2NC(=O)c2cccc(C)c2)n1 | > 15 | 2.22 |
| CCOC(=O)c1cnc2ccc(OC)cc2c1NCc1ccccc1 | > 15 | 2.77 |
| O=C(N/N=c1/oc2ccc(Br)cc2cc1-c1nc2ccccc2[nH]1)c1ccncc1 | > 15 | 4.71 |
| CCOC(=O)c1cnc2c(C)c(C)ccc2c1Nc1cc([N+](=O)[O-])ccc1O | > 15 | > 15 |
| Cc1ccc(Nc2cc(C)nc(-n3cc([N+](=O)[O-])cn3)n2)cc1 | > 15 | 7.25 |
| Clc1cccc(/C=N/Nc2[nH]cnc3ncnc2-3)c1 | 3.65 | 2.31 |
| Cc1ccc(O)c(NC(=O)c2noc3c2CC(C(C)(C)C)CC3)c1 (configuration not stated) | 0.483 | > 15 |
| C=CCOC(=O)C1=C(C)N=C2CCCC(O)=C2C1c1ccc(OCC)c(OC)c1 (configuration not stated) | 5.26 | > 15 |
| O=C(CSc1ccc2nnc(-c3cccc(F)c3)n2n1)Nc1cccc(F)c1 | 1.08 | > 15 |
